According to BigSolDB 2.1:

CC(C)[C@@H](C)[C@@H](O)[C@H](O)[C@@H](C)[C@H]1CC[C@H]2[C@@H]3COC(=O)[C@H]4C[C@H](O)[C@H](O)C[C@]4(C)[C@H]3CC[C@]12C
solubility (mole fraction)
Details | 283.15 K | 288.15 K | 293.15 K | 298.15 K | 303.15 K | 308.15 K | 313.15 K | 318.15 K | 323.15 K
in acetone | 0.00144 | 0.00176 | 0.00207 | 0.0024 | 0.00273 | 0.00303 | 0.00334 | 0.00365 | 0.00405
in acetonitrile | 0.000162 | 0.000206 | 0.000258 | 0.000322 | 0.000399 | 0.000491 | 0.0006 | 0.000728 | 0.000879
in ethanol | 0.00219 | 0.00241 | 0.00296 | 0.0032 | 0.00356 | 0.00409 | 0.00476 | 0.00551 | 0.00634
in isopropanol | 0.00136 | 0.00169 | 0.00209 | 0.00256 | 0.00312 | 0.00396 | 0.00464 | 0.00564 | 0.00667
